# Experimental data taken from patent US20250171438A1 (Agios Pharmaceuticals, Inc., priority 2022, published 2025).
# Biological target: T1, human PAH with the R408W mutation (Homo sapiens, UniProt P00439, R408W)
# T1 construct: expressed in transfected cells
# T1 sequence (P00439 1-452 R408W): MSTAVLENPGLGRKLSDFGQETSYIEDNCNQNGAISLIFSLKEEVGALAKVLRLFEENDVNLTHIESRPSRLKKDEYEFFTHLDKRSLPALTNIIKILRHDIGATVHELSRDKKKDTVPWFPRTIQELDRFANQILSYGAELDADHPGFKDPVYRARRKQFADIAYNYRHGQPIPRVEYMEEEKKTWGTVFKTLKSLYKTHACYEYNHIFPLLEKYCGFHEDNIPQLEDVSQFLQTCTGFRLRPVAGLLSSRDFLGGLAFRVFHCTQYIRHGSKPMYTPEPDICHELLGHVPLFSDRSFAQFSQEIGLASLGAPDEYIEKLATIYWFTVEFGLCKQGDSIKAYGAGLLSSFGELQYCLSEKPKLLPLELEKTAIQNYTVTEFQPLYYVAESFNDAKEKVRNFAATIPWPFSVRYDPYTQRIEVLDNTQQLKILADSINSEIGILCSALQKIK
# Assay: Cell Based Phenylalanine Flux Assay
# Conditions: A375 cells expressing human R408W PAH; 24 hrs compound incubation; 13C-Tyrosine by LC-MS; average where tested multiple times; read-out: AC50
row,AC50,Compound
1,> 5000 nM,"Cc1ncoc1C(=O)N1CC2(CC2)c2[nH]cnc2[C@@H]1c1nc2ccccc2s1 [Example 1578, (R)-(4′-(benzo[d]thiazol-2-yl)spiro[cyclopropane-1,7′-imidazo[4,5-c]pyridin]-5′(1′H,4′H,6′H)-yl)(4-methyloxazol-5-yl)methanone]"
2,> 5000 nM,"N#Cc1ncoc1C(=O)N1CCc2[nH]cnc2[C@@H]1c1nc2ccccc2s1 [Example 1584, (R)-5-(4-(benzo[d]thiazol-2-yl)-4,5,6,7-tetrahydro-1H-imidazo[4,5-c]pyridine-5-carbonyl)oxazole-4-carbonitrile]"
3,500 to 1000 nM,O=C(c1nnc(N2CCOCC2)o1)N1CCc2[nH]cnc2[C@H]1c1nc2ccccc2s1 [Example 1585]
4,1000 to 5000 nM,"O=C(c1nnc(N2CCOCC2)o1)N1CCc2[nH]cnc2[C@@H]1c1nc2ccccc2s1 [Example 1586, (R)-(4-(benzo[d]thiazol-2-yl)-6,7-dihydro-1H-imidazo[4,5-c]pyridin-5(4H)-yl)(5-morpholino-1,3,4-oxadiazol-2-yl)methanone]"
5,500 to 1000 nM,"C[C@@H]1CN(C(=O)c2nnc(-c3ccccn3)o2)[C@H](c2nc3ccccc3s2)c2nc[nH]c21 [Example 1588, ((4S,7R)-4-(benzo[d]thiazol-2-yl)-7-methyl-6,7-dihydro-1H-imidazo[4,5-c]pyridin-5(4H)-yl)(5-(pyridin-2-yl)-1,3,4-oxadiazol-2-yl)methanone]"
6,1000 to 5000 nM,"C[C@H]1CN(C(=O)c2nnc(-c3ccccn3)o2)[C@@H](c2nc3ccccc3s2)c2nc[nH]c21 [Example 1590, ((4R,7S)-4-(benzo[d]thiazol-2-yl)-7-methyl-6,7-dihydro-1H-imidazo[4,5-c]pyridin-5(4H)-yl)(5-(pyridin-2-yl)-1,3,4-oxadiazol-2-yl)methanone]"
7,< 500 nM,O=C(c1nnc(N2CCC(F)CC2)o1)N1CCc2[nH]cnc2[C@H]1c1nc2ccccc2s1 [Example 1591]
8,1000 to 5000 nM,"O=C(c1nnc(N2CCC(F)CC2)o1)N1CCc2[nH]cnc2[C@@H]1c1nc2ccccc2s1 [Example 1592, (R)-(4-(benzo[d]thiazol-2-yl)-6,7-dihydro-1H-imidazo[4,5-c]pyridin-5(4H)-yl)(5-(4-fluoropiperidin-1-yl)-1,3,4-oxadiazol-2-yl)methanone]"
9,1000 to 5000 nM,"O=C(c1nnc(NC2CC2)o1)N1CCc2[nH]cnc2[C@@H]1c1nc2ccccc2s1 [Example 1594, (R)-(4-(benzo[d]thiazol-2-yl)-6,7-dihydro-1H-imidazo[4,5-c]pyridin-5(4H)-yl)(5-(cyclopropylamino)-1,3,4-oxadiazol-2-yl)methanone]"
10,500 to 1000 nM,"CN(C)CCc1ccc2c(C(=O)N3CCc4[nH]cnc4[C@H]3c3nc4c(F)cccc4s3)cnn2c1 [Example 1599, (S)-(6-(2-(dimethylamino)ethyl)pyrazolo[1,5-a]pyridin-3-yl)(4-(4-fluorobenzo[d]thiazol-2-yl)-6,7-dihydro-1H-imidazo[4,5-c]pyridin-5(4H)-yl)methanone]"
11,1000 to 5000 nM,"CN(C)CCc1ccc2c(C(=O)N3CCc4[nH]cnc4[C@@H]3c3nc4c(F)cccc4s3)cnn2c1 [Example 1600, (R)-(6-(2-(dimethylamino)ethyl)pyrazolo[1,5-a]pyridin-3-yl)(4-(4-fluorobenzo[d]thiazol-2-yl)-6,7-dihydro-1H-imidazo[4,5-c]pyridin-5(4H)-yl)methanone]"
12,< 500 nM,"O=C(c1nnc(-c2ccccn2)o1)N1CCc2[nH]cnc2[C@H]1c1nc2c(F)cccc2s1 [Example 1602, (S)-(4-(4-fluorobenzo[d]thiazol-2-yl)-6,7-dihydro-1H-imidazo[4,5-c]pyridin-5(4H)-yl)(5-(pyridin-2-yl)-1,3,4-oxadiazol-2-yl)methanone]"
13,1000 to 5000 nM,Cn1nccc1C(=O)N1CCc2[nH]cnc2[C@H]1c1nc2c(F)cccc2s1 [Example 1603]
14,500 to 1000 nM,O=C(c1ccnn1-c1ccccc1)N1CCc2[nH]cnc2[C@H]1c1nc2c(F)cccc2s1 [Example 1605]
15,500 to 1000 nM,"C[C@H]1CN(C(=O)c2ocnc2C2CC2)[C@H](c2nc3c(F)cccc3s2)c2nc[nH]c21 [Example 1608, (4-cyclopropyloxazol-5-yl)((4S,7S)-4-(4-fluorobenzo[d]thiazol-2-yl)-7-methyl-6,7-dihydro-1H-imidazo[4,5-c]pyridin-5(4H)-yl)methanone]"

# The next lines start with the molecule.
row,Compound,AC50
1,"CN1CCN(c2nc(C(F)(F)F)c(C(=O)N3CCc4[nH]cnc4[C@@H]3c3nc4ccccc4s3)o2)CC1 [Example 1574, (R)-(4-(benzo[d]thiazol-2-yl)-6,7-dihydro-1H-imidazo[4,5-c]pyridin-5(4H)-yl)(2-(4-methylpiperazin-1-yl)-4-(trifluoromethyl)oxazol-5-yl)methanone]",< 500 nM
2,O=C(c1oc(CCN2CC(F)C2)nc1C(F)(F)F)N1CCc2[nH]cnc2[C@H]1c1nc2ccccc2s1 [Example 1575],< 500 nM
3,"O=C(c1oc(CCN2CC(F)C2)nc1C(F)(F)F)N1CCc2[nH]cnc2[C@@H]1c1nc2ccccc2s1 [Example 1576, (R)-(4-(benzo[d]thiazol-2-yl)-6,7-dihydro-1H-imidazo[4,5-c]pyridin-5(4H)-yl)(2-(2-(3-fluoroazetidin-1-yl)ethyl)-4-(trifluoromethyl)oxazol-5-yl)methanone]",< 500 nM
4,O=C(c1oc(CCC2CC2)nc1C(F)(F)F)N1CCc2[nH]cnc2[C@H]1c1nc2ccccc2s1 [Example 1579],< 500 nM
5,"O=C(c1oc(CCC2CC2)nc1C(F)(F)F)N1CCc2[nH]cnc2[C@@H]1c1nc2ccccc2s1 [Example 1580, (R)-(4-(benzo[d]thiazol-2-yl)-6,7-dihydro-1H-imidazo[4,5-c]pyridin-5(4H)-yl)(2-(2-cyclopropylethyl)-4-(trifluoromethyl)oxazol-5-yl)methanone]",< 500 nM
6,CN(C)CCc1nc(C(F)(F)F)c(C(=O)N2CCc3[nH]cnc3[C@H]2c2nc3ccccc3s2)o1 [Example 1581],< 500 nM
7,"CN(C)CCc1nc(C(F)(F)F)c(C(=O)N2CCc3[nH]cnc3[C@@H]2c2nc3ccccc3s2)o1 [Example 1582, (R)-(4-(benzo[d]thiazol-2-yl)-6,7-dihydro-1H-imidazo[4,5-c]pyridin-5(4H)-yl)(2-(2-(dimethylamino)ethyl)-4-(trifluoromethyl)oxazol-5-yl)methanone]",< 500 nM
8,"N#Cc1ncoc1C(=O)N1CCc2[nH]cnc2[C@H]1c1nc2ccccc2s1 [Example 1583, (S)-5-(4-(benzo[d]thiazol-2-yl)-4,5,6,7-tetrahydro-1H-imidazo[4,5-c]pyridine-5-carbonyl)oxazole-4-carbonitrile]",< 500 nM
9,"C[C@H]1CN(C(=O)c2nnc(-c3ccccn3)o2)[C@H](c2nc3ccccc3s2)c2nc[nH]c21 [Example 1589, ((4S,7S)-4-(benzo[d]thiazol-2-yl)-7-methyl-6,7-dihydro-1H-imidazo[4,5-c]pyridin-5(4H)-yl)(5-(pyridin-2-yl)-1,3,4-oxadiazol-2-yl)methanone]",500 to 1000 nM
10,O=C(c1nnc(NC2CC2)o1)N1CCc2[nH]cnc2[C@H]1c1nc2ccccc2s1 [Example 1593],500 to 1000 nM
11,O=C(c1oc(NC2CC2)nc1C(F)(F)F)N1CCc2[nH]cnc2[C@H]1c1nc2c(F)cccc2s1 [Example 1595],< 500 nM
12,"O=C(c1oc(NC2CC2)nc1C(F)(F)F)N1CCc2[nH]cnc2[C@@H]1c1nc2c(F)cccc2s1 [Example 1596, (R)-(2-(cyclopropylamino)-4-(trifluoromethyl)oxazol-5-yl)(4-(4-fluorobenzo[d]thiazol-2-yl)-6,7-dihydro-1H-imidazo[4,5-c]pyridin-5(4H)-yl)methanone]",< 500 nM
13,"O=C(c1oc(N2CCOCC2)nc1C(F)(F)F)N1CCc2[nH]cnc2[C@H]1c1nc2c(F)cccc2s1 [Example 1597, (S)-(4-(4-fluorobenzo[d]thiazol-2-yl)-6,7-dihydro-1H-imidazo[4,5-c]pyridin-5(4H)-yl)(2-morpholino-4-(trifluoromethyl)oxazol-5-yl)methanone]",< 500 nM
14,"O=C(c1oc(N2CCOCC2)nc1C(F)(F)F)N1CCc2[nH]cnc2[C@@H]1c1nc2c(F)cccc2s1 [Example 1598, (R)-(4-(4-fluorobenzo[d]thiazol-2-yl)-6,7-dihydro-1H-imidazo[4,5-c]pyridin-5(4H)-yl)(2-morpholino-4-(trifluoromethyl)oxazol-5-yl)methanone]",< 500 nM
15,"O=C(c1nnc(-c2ccccn2)o1)N1CCc2[nH]cnc2[C@@H]1c1nc2c(F)cccc2s1 [Example 1601, (R)-(4-(4-fluorobenzo[d]thiazol-2-yl)-6,7-dihydro-1H-imidazo[4,5-c]pyridin-5(4H)-yl)(5-(pyridin-2-yl)-1,3,4-oxadiazol-2-yl)methanone]",500 to 1000 nM
16,"Cn1nccc1C(=O)N1CCc2[nH]cnc2[C@@H]1c1nc2c(F)cccc2s1 [Example 1604, (R)-(4-(4-fluorobenzo[d]thiazol-2-yl)-6,7-dihydro-1H-imidazo[4,5-c]pyridin-5(4H)-yl)(1-methyl-1H-pyrazol-5-yl)methanone]",> 5000 nM
17,"O=C(c1ccnn1-c1ccccc1)N1CCc2[nH]cnc2[C@@H]1c1nc2c(F)cccc2s1 [Example 1606, (R)-(4-(4-fluorobenzo[d]thiazol-2-yl)-6,7-dihydro-1H-imidazo[4,5-c]pyridin-5(4H)-yl)(1-phenyl-1H-pyrazol-5-yl)methanone]",1000 to 5000 nM
18,"C[C@H]1CN(C(=O)c2ocnc2C2CC2)[C@@H](c2nc3c(F)cccc3s2)c2nc[nH]c21 [Example 1607, (4-cyclopropyloxazol-5-yl)((4R,7S)-4-(4-fluorobenzo[d]thiazol-2-yl)-7-methyl-6,7-dihydro-1H-imidazo[4,5-c]pyridin-5(4H)-yl)methanone]",1000 to 5000 nM
